# According to paper PMC10707737, “Indole Diterpene Derivatives from the Aspergillus flavus GZWMJZ-288, an Endophytic Fungus from Garcinia multiflora” (Molecules, 2023):
# Entries after “also recorded” stand apart in the source; their conditions may differ.
# Biological target: T1, NPC1L1 (Homo sapiens, UniProt Q9UHC9)
# T1 sequence (Q9UHC9 22-1359): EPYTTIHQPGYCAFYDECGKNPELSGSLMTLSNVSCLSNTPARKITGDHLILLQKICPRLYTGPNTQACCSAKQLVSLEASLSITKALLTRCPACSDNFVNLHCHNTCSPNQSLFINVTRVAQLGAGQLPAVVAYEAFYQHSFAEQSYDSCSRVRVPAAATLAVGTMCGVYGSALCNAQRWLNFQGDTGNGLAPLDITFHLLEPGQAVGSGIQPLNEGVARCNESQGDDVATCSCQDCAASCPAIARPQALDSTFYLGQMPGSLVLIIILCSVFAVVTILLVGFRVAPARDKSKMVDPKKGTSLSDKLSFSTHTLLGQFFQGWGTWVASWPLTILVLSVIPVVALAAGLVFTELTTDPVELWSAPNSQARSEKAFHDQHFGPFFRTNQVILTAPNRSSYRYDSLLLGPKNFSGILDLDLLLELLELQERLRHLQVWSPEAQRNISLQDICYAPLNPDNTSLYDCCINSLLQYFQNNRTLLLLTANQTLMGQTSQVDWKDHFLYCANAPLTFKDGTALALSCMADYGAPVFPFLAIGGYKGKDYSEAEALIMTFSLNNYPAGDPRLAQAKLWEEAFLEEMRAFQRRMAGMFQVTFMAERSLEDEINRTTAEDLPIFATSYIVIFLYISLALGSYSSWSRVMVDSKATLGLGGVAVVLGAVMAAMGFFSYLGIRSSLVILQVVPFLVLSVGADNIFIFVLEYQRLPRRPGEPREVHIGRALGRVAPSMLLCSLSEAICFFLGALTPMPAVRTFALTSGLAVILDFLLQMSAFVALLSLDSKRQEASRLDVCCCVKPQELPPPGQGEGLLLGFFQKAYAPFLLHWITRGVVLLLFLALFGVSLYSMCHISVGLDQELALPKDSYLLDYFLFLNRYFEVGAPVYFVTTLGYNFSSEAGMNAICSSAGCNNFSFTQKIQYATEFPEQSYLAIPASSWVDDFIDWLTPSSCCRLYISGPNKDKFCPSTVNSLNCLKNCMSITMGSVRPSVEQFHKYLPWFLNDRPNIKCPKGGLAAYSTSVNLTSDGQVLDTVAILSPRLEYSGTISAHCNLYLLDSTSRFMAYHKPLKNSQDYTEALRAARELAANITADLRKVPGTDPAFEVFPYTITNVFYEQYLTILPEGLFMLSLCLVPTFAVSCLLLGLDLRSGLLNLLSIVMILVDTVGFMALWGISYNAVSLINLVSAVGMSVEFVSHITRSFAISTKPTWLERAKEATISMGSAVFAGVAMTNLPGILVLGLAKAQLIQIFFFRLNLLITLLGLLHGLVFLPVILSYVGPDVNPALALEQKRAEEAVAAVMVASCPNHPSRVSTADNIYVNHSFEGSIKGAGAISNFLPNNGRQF
# Assay: Combining ability test with NPC1L1 (SPR, Biacore)
# Type: binding
# Conditions: fixed concentration 10 μM; ezetimibe positive control
# Protocol: NPC1L1 is currently considered to be the key protein for cholesterol absorption. It is impossible to evaluate the activity of targeting compounds on NPC1L1 through colorimetry assay due to NPC1L1′s lack of catalytic activity. The experiment was carried out under fixed concentration at 10 μM with ezetimibe as a positive control. Excess reactive esters on the sensor chip surface were blocked with 1 M ethanolamine (pH 8.5) for 7 min. The flow cell used for reference was activated and blocked as described above but remained uncoupled. Binding is typically reported in response units (RUs), which is defined as the response obtained from the flow cell containing the immobilized receptor minus the response obtained from the reference flow cell. CM5 series sensor chips and coupling reagents EDC and NHS were purchased from GE. The surface of the flow cell was activated for 7 min using a 1:1 mixture of 100 mM EDC and 100 mM NHS at a flow rate of 10 μL/mi. Subsequently, the corresponding proteins were injected over the surface for 7 min using the time and flow method (final immobilization level: 15,000 RU). Excess reactive esters on the sensor chip surface were blocked with 1 M ethanolamine (pH 8.5) for 7 min. The ability of compounds to combine with NPC1L1 protein was determined by the response value.
row,Compound,binding ability with NPC1L1 (SPR response)
1,"CC(=O)OCC(C)C1=C(c2c[nH]c3ccccc23)C2C(C)CC(O)C3(C)C(C)CCC(O)C23CC1 (stereo not drawn) [Compound 1, 26-dihydroxyaflavininyl acetate]",could bind well with NPC1L1; also recorded: comparable binding ability with NPC1L1
2,"C=C(C)C1CCC23[C@H](C1c1c[nH]c4ccccc14)[C@H](C)C[C@@H](O)[C@@]2(C)[C@H](C)CC[C@@H]3O (stereo partly drawn) [Compound 4, 14-eoi-14-hydroxy10,23-dihydro-24,25-dehydroaflavinine]",could bind well with NPC1L1; also recorded: comparable binding ability with NPC1L1
3,"CC(C)C1=C(c2c[nH]c3ccccc23)[C@@H]2[C@H](C)CC[C@@]3(C)[C@H](C)CC[C@H](O)C23CC1 (stereo partly drawn) [Compound 6, aflavinine]",could bind well with NPC1L1; also recorded: stronger than that of ezetimibe; also recorded: stronger binding ability with NPC1L1 than ezetimibe
